Activity calls are given as the source filed them. No cut-off for these calls is given here.
Legend:
[1] = target: T1, Protein cereblon/Tyrosine-protein kinase BTK (Homo sapiens, UniProt Q06187+Q96SW2); assay: PROTAC activity at CRBN/BTK in human JeKo-1 cells assessed as induction of BTK degradation at 100 nM incubated for 24 hrs by Western blotting analysis relative to control; format: cell-based
Target sequence in this assay (Q06187 2-659 limits assumed): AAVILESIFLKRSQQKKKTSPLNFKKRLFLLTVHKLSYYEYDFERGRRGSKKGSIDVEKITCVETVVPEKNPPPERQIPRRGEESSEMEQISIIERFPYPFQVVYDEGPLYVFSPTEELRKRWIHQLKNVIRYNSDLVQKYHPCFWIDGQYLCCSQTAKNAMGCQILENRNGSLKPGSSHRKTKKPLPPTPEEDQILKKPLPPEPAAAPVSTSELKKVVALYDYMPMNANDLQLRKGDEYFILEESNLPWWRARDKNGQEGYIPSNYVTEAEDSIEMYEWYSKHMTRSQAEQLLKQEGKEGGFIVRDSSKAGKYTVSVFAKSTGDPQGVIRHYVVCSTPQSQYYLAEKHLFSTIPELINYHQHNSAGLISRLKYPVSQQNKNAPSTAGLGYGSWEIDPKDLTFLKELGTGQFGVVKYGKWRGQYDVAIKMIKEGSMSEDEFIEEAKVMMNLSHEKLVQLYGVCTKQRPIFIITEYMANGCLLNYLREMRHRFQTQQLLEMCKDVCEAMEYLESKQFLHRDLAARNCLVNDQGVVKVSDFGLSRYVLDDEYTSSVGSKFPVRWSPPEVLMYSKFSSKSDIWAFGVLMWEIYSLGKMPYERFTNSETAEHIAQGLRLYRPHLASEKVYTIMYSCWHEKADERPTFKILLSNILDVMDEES
Target sequence in this assay (Q96SW2 whole entry partner): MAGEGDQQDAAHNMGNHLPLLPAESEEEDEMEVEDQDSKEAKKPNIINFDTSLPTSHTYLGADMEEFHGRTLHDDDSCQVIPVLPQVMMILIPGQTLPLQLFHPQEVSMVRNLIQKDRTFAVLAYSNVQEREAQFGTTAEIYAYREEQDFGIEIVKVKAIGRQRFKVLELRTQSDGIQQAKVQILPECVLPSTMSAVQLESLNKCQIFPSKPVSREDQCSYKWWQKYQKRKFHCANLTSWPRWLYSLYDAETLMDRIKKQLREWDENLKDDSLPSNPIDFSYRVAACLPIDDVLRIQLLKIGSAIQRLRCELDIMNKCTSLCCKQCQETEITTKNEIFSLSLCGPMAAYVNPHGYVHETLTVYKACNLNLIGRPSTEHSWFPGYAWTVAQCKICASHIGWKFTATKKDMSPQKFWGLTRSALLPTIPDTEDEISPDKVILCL

[2] = target: T1, Protein cereblon/Tyrosine-protein kinase BTK; assay: PROTAC activity at CRBN/BTK in human JeKo-1 cells assessed as induction of BTK degradation at 1000 nM incubated for 24 hrs by Western blotting analysis relative to control; format: cell-based
Target sequence in this assay (Q06187 2-659 limits assumed): as the sequence (Q06187 2-659 limits assumed) above
Target sequence in this assay (Q96SW2 whole entry partner): as the sequence (Q96SW2 whole entry partner) above

[3] = target: T1, Protein cereblon/Tyrosine-protein kinase BTK; assay: PROTAC activity at CRBN/BTK in human JeKo-1 cells assessed as induction of BTK degradation incubated for 24 hrs by Western blotting analysis; format: cell-based
Target sequence in this assay (Q06187 whole entry): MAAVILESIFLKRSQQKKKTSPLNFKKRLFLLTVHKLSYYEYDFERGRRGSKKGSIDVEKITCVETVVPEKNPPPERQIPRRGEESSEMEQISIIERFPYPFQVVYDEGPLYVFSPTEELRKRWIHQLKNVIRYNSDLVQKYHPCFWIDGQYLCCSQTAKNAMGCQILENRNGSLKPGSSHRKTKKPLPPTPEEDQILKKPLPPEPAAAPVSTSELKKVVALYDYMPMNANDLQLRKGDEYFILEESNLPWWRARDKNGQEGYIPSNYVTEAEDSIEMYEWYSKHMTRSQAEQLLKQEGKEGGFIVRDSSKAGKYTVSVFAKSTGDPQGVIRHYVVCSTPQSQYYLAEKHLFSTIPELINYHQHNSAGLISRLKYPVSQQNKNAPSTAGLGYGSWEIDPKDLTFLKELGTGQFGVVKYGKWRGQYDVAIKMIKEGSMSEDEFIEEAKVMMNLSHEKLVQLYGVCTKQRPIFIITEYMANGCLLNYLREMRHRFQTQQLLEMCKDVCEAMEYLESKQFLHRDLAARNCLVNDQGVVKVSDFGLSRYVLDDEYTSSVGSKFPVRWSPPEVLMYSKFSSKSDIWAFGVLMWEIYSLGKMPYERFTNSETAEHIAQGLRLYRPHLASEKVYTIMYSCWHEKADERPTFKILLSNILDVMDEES
Target sequence in this assay (Q96SW2 whole entry): as the sequence (Q96SW2 whole entry partner) above

[4] = target: T1, Protein cereblon/Tyrosine-protein kinase BTK; assay: PROTAC activity at CRBN/BTK in human JeKo-1 cells assessed as induction of BTK degradation by measuring maximal efficacy at 1.6 to 1000 nM incubated for 24 hrs by Western blotting analysis relative to control; format: cell-based; conditions: dose 1.6-1000 nM
Target sequence in this assay (Q06187 2-659 limits assumed): as the sequence (Q06187 2-659 limits assumed) above
Target sequence in this assay (Q96SW2 whole entry partner): as the sequence (Q96SW2 whole entry partner) above

[5] = Metabolic stability in mouse liver microsomes assessed as half life at […] measured upto 60 mins in presence of NADPH by HPLC-MS/MS analysis; format: ADME, Microsome
[6] = target: T1, Protein cereblon/Tyrosine-protein kinase BTK; assay: PROTAC activity at CRBN/BTK in human JeKo-1 cells assessed as induction of BTK degradation pre-treated with N-((1S,4S)-4-((5-(2-chloro-4-phenoxybenzoyl)-7H-pyrrolo[2,3-d]pyrimidin-4-yl)amino)cyclohexyl)-2-(1-(2-(1-(6-fluoro-2-(1-methyl-2,6-dioxopiperidin-3-yl)-1-oxoisoindolin-5-yl)piperidin-4-yl)ethyl)piperidin-4-yl)acetamide for 2 hrs followed by compound treatment for 12 hrs by Western blotting analysis; format: cell-based
Target sequence in this assay (Q06187 2-659 limits assumed): as the sequence (Q06187 2-659 limits assumed) above
Target sequence in this assay (Q96SW2 whole entry partner): as the sequence (Q96SW2 whole entry partner) above

[7] = target: T1, Protein cereblon/Tyrosine-protein kinase BTK; assay: PROTAC activity at CRBN/BTK in human JeKo-1 cells assessed as induction of BTK degradation pre-treated with MG-132 for 2 hrs followed by compound treatment for 12 hrs by Western blotting analysis; format: cell-based
Target sequence in this assay (Q06187 2-659 limits assumed): as the sequence (Q06187 2-659 limits assumed) above
Target sequence in this assay (Q96SW2 whole entry partner): as the sequence (Q96SW2 whole entry partner) above

[8] = target: T1, Protein cereblon/Tyrosine-protein kinase BTK; assay: PROTAC activity at CRBN/BTK in human JeKo-1 cells assessed as effect on […] levels at 1.6 to 1000 nM incubated for 24 hrs by Western blotting analysis; format: cell-based; conditions: dose 1.6-1000 nM
Target sequence in this assay (Q06187 2-659 limits assumed): as the sequence (Q06187 2-659 limits assumed) above
Target sequence in this assay (Q96SW2 whole entry partner): as the sequence (Q96SW2 whole entry partner) above

[9] = target: T1, Protein cereblon/Tyrosine-protein kinase BTK; assay: PROTAC activity at CRBN/BTK in human JeKo-1 cells assessed as effect on GSPT1 levels at 1.6 to 1000 nM incubated for 24 hrs by Western blotting analysis; format: cell-based; conditions: dose 1.6-1000 nM
OCI-Ly10 = assay: Antiproliferative activity against human OCILY10 cells assessed as inhibition of cell growth measured after 3 days by CCK-8 assay; format: functional, cell-based; conditions: OCI-Ly10, 72 h
TMD8 = assay: Antiproliferative activity against human TMD8 cells assessed as inhibition of cell growth measured after 3 days by CCK-8 assay; format: functional, cell-based; conditions: TMD8, 72 h
JeKo-1 = assay: Antiproliferative activity against human JeKo-1 cells assessed as inhibition of cell growth measured after 3 days by CCK-8 assay; format: functional, cell-based; conditions: JeKo-1, 72 h
BaF3 = assay: Antiproliferative activity against mouse BaF3 cells expressing BTK C481S mutant assessed as inhibition of cell growth measured after 3 days by CCK-8 assay; format: functional, cell-based; conditions: BaF3, 72 h
[10] = Drug concentration in BALB/c mouse plasma at 2 mg/kg, iv measured after 4 hrs by LC-MS/MS analysis; format: ADME, organism-based
[11] = target: T1, Protein cereblon/Tyrosine-protein kinase BTK; assay: PROTAC activity at CRBN/BTK in human JeKo-1 cells assessed as induction of BTK degradation by measuring maximal efficacy at 1.6 to 5000 nM incubated for 24 hrs by Western blotting analysis relative to control; format: cell-based; conditions: dose 1.6-5000 nM

Activity [1] | Activity [2] | DC50 [3] | SMILES | other results
45.5% | 57% |  | O=C1CCC(N2C(=O)c3ccc(N4CCC(CC(=O)N5CCC(CN[C@H]6CC[C@@H](Nc7ncnc8[nH]cc(C(=O)c9ccc(Oc%10ccccc%10)cc9Cl)c78)CC6)CC5)CC4)cc3C2=O)C(=O)N1 (some centres undefined) | 
51.5% | 62% |  | O=C1CCC(N2C(=O)c3ccc(N4CCC(CN5CCC(N[C@H]6CC[C@@H](Nc7ncnc8[nH]cc(C(=O)c9ccc(Oc%10ccccc%10)cc9Cl)c78)CC6)CC5)CC4)cc3C2=O)C(=O)N1 (some centres undefined) | 
91% | 89% | 7 nM | O=C1CCC(N2Cc3cc(N4CCC(CCN5CCC(CC(=O)N[C@H]6CC[C@@H](Nc7ncnc8[nH]cc(C(=O)c9ccc(Oc%10ccccc%10)cc9Cl)c78)CC6)CC5)CC4)c(F)cc3C2=O)C(=O)N1 (some centres undefined) | Emax [4]: 96.5%; half-life [5]: > 145 min; Activity [6]: inactive; Activity [7]: inactive; Activity [8]: inactive; Activity [9]: inactive; IC50 (OCI-Ly10): 2.3 nM; IC50 (TMD8): 4.5 nM; IC50 (JeKo-1): 38.1 nM; IC50 (BaF3): 86 nM; concentration at 4 h [10]: > 10 nM
39% | 42.5% |  | O=C1CCC(N2C(=O)c3ccc(N4CCC(N5CCC(CN[C@H]6CC[C@@H](Nc7ncnc8[nH]cc(C(=O)c9ccc(Oc%10ccccc%10)cc9Cl)c78)CC6)CC5)CC4)cc3C2=O)C(=O)N1 (some centres undefined) | 
86.5% | 88.6% | 20 nM | O=C1CCC(N2C(=O)c3cccc(NCCOCCOCCOCCOCCOCCNC(=O)N[C@H]4CC[C@@H](Nc5ncnc6[nH]cc(C(=O)c7ccc(Oc8ccccc8)cc7Cl)c56)CC4)c3C2=O)C(=O)N1 (some centres undefined) | Emax [4]: 93.8%; half-life [5]: 1.3 min; IC50 (BaF3): 1760 nM
76% | 69.5% | 100 nM | O=C1CCC(N2C(=O)c3ccc(N4CCC(CCN5CCC(CN[C@H]6CC[C@@H](Nc7ncnc8[nH]cc(C(=O)c9ccc(Oc%10ccccc%10)cc9Cl)c78)CC6)CC5)CC4)cc3C2=O)C(=O)N1 (some centres undefined) | 
57% | 77% |  | O=C1CCC(N2C(=O)c3ccc(N4CCC(CN5CCC(CCN[C@H]6CC[C@@H](Nc7ncnc8[nH]cc(C(=O)c9ccc(Oc%10ccccc%10)cc9Cl)c78)CC6)CC5)CC4)cc3C2=O)C(=O)N1 (some centres undefined) | 
79.5% | 73.5% | 24 nM | O=C1CCC(N2C(=O)c3ccc(N4CCC(CN5CCC(CC(=O)N[C@H]6CC[C@@H](Nc7ncnc8[nH]cc(C(=O)c9ccc(Oc%10ccccc%10)cc9Cl)c78)CC6)CC5)CC4)cc3C2=O)C(=O)N1 (some centres undefined) | 
 |  |  | O=C(c1ccc(Oc2ccccc2)cc1Cl)c1c[nH]c2ncnc(N[C@@H]3CC[C@@H](CO)OC3)c12 [NEMTABRUTINIB] | IC50 (JeKo-1): 66.1 nM; IC50 (BaF3): 548 nM
 |  |  | C=CC(=O)N1CCC[C@@H](n2nc(-c3ccc(Oc4ccccc4)cc3)c3c(N)ncnc32)C1 [IBRUTINIB] | IC50 (OCI-Ly10): 4.5 nM; IC50 (TMD8): 4.7 nM; IC50 (JeKo-1): 79.8 nM; IC50 (BaF3): 1550 nM
32% | 24% |  | O=C1CCC(N2C(=O)c3ccc(N4CCC(CN5CC(N[C@H]6CC[C@@H](Nc7ncnc8[nH]cc(C(=O)c9ccc(Oc%10ccccc%10)cc9Cl)c78)CC6)C5)CC4)cc3C2=O)C(=O)N1 (some centres undefined) | 
30% | 21% |  | O=C1CCC(N2C(=O)c3ccc(N4CC(N5CCC(CN[C@H]6CC[C@@H](Nc7ncnc8[nH]cc(C(=O)c9ccc(Oc%10ccccc%10)cc9Cl)c78)CC6)CC5)C4)cc3C2=O)C(=O)N1 (some centres undefined) | 
48% | 63.5% |  | O=C1CCC(N2C(=O)c3ccc(N4CCC(CN5CCC(CN[C@H]6CC[C@@H](Nc7ncnc8[nH]cc(C(=O)c9ccc(Oc%10ccccc%10)cc9Cl)c78)CC6)CC5)CC4)cc3C2=O)C(=O)N1 (some centres undefined) | 
61% | 50% |  | O=C1CCC(N2C(=O)c3ccc(N4CCC(CN5CCC(C(=O)N[C@H]6CC[C@@H](Nc7ncnc8[nH]cc(C(=O)c9ccc(Oc%10ccccc%10)cc9Cl)c78)CC6)CC5)CC4)cc3C2=O)C(=O)N1 (some centres undefined) | 
87% | 88.5% | 9.3 nM | O=C1CCC(N2C(=O)c3cc(F)c(N4CCC(CCN5CCC(CC(=O)N[C@H]6CC[C@@H](Nc7ncnc8[nH]cc(C(=O)c9ccc(Oc%10ccccc%10)cc9Cl)c78)CC6)CC5)CC4)cc3C2=O)C(=O)N1 (some centres undefined) | half-life [5]: 55.4 min; Emax [11]: 93.6%; IC50 (OCI-Ly10): 28.2 nM; IC50 (TMD8): 47 nM; IC50 (JeKo-1): 116 nM
3% | 5% |  | O=C1CCC(N2C(=O)c3ccc(N4CCC(N[C@H]5CC[C@@H](Nc6ncnc7[nH]cc(C(=O)c8ccc(Oc9ccccc9)cc8Cl)c67)CC5)CC4)cc3C2=O)C(=O)N1 (some centres undefined) | 
31.5% | 74% |  | O=C1CCC(N2C(=O)c3ccc(N4CCC(CN5CCCC(N[C@H]6CC[C@@H](Nc7ncnc8[nH]cc(C(=O)c9ccc(Oc%10ccccc%10)cc9Cl)c78)CC6)C5)CC4)cc3C2=O)C(=O)N1 (some centres undefined) | 
80.4% | 86% | 10.1 nM | O=C1CCC(N2Cc3cc(N4CCC(CCN5CCC(CC(=O)N[C@H]6CC[C@@H](Nc7ncnc8[nH]cc(C(=O)c9ccc(Oc%10ccccc%10)cc9Cl)c78)CC6)CC5)CC4)ccc3C2=O)C(=O)N1 (some centres undefined) | Emax [4]: 90.1%; half-life [5]: 52 min; IC50 (OCI-Ly10): 15.7 nM; IC50 (TMD8): 15.5 nM
28.5% | 26% |  | O=C1CCC(N2C(=O)c3ccc(N4CCC(F)(CN5CCC(CC(=O)N[C@H]6CC[C@@H](Nc7ncnc8[nH]cc(C(=O)c9ccc(Oc%10ccccc%10)cc9Cl)c78)CC6)CC5)CC4)cc3C2=O)C(=O)N1 (some centres undefined) | 
83% | 87% | 7.4 nM | O=C1CCC(N2Cc3ccc(N4CCC(CCN5CCC(CC(=O)N[C@H]6CC[C@@H](Nc7ncnc8[nH]cc(C(=O)c9ccc(Oc%10ccccc%10)cc9Cl)c78)CC6)CC5)CC4)cc3C2=O)C(=O)N1 (some centres undefined) | Emax [4]: 90.6%; half-life [5]: > 145 min; IC50 (OCI-Ly10): 5.9 nM; IC50 (TMD8): 9.3 nM; IC50 (JeKo-1): 34.4 nM
29.5% | 38.5% |  | O=C1CCC(N2C(=O)c3ccc(N4CCC(CN5CC(CN[C@H]6CC[C@@H](Nc7ncnc8[nH]cc(C(=O)c9ccc(Oc%10ccccc%10)cc9Cl)c78)CC6)C5)CC4)cc3C2=O)C(=O)N1 (some centres undefined) | 
85% | 82.5% | 8.8 nM | O=C1CCC(N2C(=O)c3ccc(N4CCC(CCN5CCC(CC(=O)N[C@H]6CC[C@@H](Nc7ncnc8[nH]cc(C(=O)c9ccc(Oc%10ccccc%10)cc9Cl)c78)CC6)CC5)CC4)cc3C2=O)C(=O)N1 (some centres undefined) | half-life [5]: 86 min; Emax [11]: 94.1%; IC50 (OCI-Ly10): 15.4 nM; IC50 (TMD8): 82.1 nM; IC50 (JeKo-1): 59.5 nM
15% | 18.5% |  | O=C1CCC(N2C(=O)c3ccc(N4CCC(N5CCC(N[C@H]6CC[C@@H](Nc7ncnc8[nH]cc(C(=O)c9ccc(Oc%10ccccc%10)cc9Cl)c78)CC6)CC5)CC4)cc3C2=O)C(=O)N1 (some centres undefined) | 

Reference: ChEMBL document CHEMBL5321228, “Discovery of novel BTK PROTACs with improved metabolic stability via linker rigidification strategy” (Eur J Med Chem, 2023)
